Peptide text beside a SMILES is read from it.
Columns and labels:
Plasma stability = assay type: in vitro ADME, human
CYP1A2 = target: T1, CYP1A2 (Homo sapiens, UniProt P05177); assay: biochemical; assay type: in vitro ADME
T1 sequence (P05177 1-516): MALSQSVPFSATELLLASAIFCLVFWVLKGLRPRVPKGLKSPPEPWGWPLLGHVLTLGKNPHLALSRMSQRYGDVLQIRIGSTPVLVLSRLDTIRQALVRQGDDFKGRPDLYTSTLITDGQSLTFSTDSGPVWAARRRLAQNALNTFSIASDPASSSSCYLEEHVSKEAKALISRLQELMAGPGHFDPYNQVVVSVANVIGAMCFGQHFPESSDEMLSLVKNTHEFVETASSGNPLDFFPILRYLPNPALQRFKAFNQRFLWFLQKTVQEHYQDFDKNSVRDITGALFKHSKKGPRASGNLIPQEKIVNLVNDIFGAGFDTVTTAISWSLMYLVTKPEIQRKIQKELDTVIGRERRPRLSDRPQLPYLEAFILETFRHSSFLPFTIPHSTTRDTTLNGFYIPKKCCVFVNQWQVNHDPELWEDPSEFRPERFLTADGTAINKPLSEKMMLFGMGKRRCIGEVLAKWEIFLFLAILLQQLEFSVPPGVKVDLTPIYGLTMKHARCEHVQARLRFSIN

[1] = Tissue distribution in SD rats after single subcutaneous injection; assay type: in vivo, SD rat
human hepatocytes = assay: LDH release cytotoxicity in the CYP induction assay; assay type: cell-based; conditions: three donors, 0.100, 1.00, 3.00, 10.0 and 15.0 μM
CYP2C8 = target: T2, CYP2C8 (Homo sapiens, UniProt P10632); assay: CYP450 inhibition assay; assay type: in vitro ADME
T2 sequence (P10632 1-490): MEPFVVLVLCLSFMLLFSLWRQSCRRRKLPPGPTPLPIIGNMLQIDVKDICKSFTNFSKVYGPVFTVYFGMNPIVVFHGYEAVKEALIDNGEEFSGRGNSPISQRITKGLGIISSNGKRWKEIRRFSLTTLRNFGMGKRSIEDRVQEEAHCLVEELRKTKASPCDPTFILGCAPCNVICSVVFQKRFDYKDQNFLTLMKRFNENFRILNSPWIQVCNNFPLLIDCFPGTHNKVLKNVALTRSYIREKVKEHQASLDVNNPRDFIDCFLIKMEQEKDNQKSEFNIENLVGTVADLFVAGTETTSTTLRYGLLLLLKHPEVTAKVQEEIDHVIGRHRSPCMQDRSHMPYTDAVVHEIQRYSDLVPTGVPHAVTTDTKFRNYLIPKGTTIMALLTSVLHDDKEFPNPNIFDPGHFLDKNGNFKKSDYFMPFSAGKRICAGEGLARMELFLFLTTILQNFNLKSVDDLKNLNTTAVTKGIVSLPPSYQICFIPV

CD-1 mouse hepatocytes = assay: Hepatocyte stability; assay type: in vitro ADME; conditions: 1.00 μM
[2] = Metabolite identification in liver microsomes; assay type: in vitro ADME; conditions: human liver microsomes, 10 μM, 37 °C, 120 min, NADPH
MATE1 = MATE1 (Homo sapiens, UniProt Q96FL8); assay: Transporter inhibition in HEK293 cells; assay type: in vitro ADME
MATE1, sequence (Q96FL8 whole entry): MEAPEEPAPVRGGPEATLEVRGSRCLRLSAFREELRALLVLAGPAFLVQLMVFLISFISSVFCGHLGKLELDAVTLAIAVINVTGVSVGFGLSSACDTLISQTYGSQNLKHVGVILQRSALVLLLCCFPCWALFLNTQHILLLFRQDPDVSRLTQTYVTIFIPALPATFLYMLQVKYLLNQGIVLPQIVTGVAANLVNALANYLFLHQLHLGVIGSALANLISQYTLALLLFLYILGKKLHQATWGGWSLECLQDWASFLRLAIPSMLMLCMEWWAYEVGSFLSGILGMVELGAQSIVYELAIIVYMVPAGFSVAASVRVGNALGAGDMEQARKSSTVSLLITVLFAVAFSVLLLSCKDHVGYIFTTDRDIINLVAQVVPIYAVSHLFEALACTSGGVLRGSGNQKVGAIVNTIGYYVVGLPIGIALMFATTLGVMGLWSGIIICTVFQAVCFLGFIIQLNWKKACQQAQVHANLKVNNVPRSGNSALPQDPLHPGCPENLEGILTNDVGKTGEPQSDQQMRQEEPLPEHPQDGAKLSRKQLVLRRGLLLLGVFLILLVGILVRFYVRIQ

[3] = In vitro protein binding, rapid equilibrium dialysis; assay type: in vitro ADME; conditions: CD-1, mouse, plasma
OAT1 = OAT1 (Homo sapiens, UniProt Q4U2R8); assay: Transporter inhibition in HEK293 cells; assay type: in vitro ADME
OAT1, sequence (Q4U2R8 whole entry): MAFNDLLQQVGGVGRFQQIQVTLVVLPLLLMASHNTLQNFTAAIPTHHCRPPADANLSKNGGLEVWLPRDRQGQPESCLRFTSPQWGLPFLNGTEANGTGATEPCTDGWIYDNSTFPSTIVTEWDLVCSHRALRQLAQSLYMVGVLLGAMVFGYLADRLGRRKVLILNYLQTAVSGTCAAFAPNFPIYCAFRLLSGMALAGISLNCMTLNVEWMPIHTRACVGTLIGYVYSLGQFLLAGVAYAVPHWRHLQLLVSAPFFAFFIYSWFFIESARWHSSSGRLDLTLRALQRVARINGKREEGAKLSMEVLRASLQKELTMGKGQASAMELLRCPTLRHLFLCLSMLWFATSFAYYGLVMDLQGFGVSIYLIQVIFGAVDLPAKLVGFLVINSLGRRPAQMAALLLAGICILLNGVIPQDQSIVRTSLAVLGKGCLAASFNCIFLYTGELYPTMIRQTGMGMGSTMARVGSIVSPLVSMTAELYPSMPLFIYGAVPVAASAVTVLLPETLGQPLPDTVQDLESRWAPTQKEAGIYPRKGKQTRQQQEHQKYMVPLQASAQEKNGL

[4] = kidney, male SD rats, SC 10 mg/kg single
[5] = large intestine, male SD rats, SC 10 mg/kg single
[6] = liver, male SD rats, SC 10 mg/kg single
[7] = lung, male SD rats, SC 10 mg/kg single
[8] = male, SD, rat, fat, sc, 10 mg/kg
[9] = male, SD, rat, heart, sc, 10 mg/kg
[10] = male, SD, rat, kidney, sc, 10 mg/kg
[11] = male, SD, rat, large intestine, sc, 10 mg/kg
[12] = male, SD, rat, liver, sc, 10 mg/kg
[13] = male, SD, rat, lung, sc, 10 mg/kg
[14] = male, SD, rat, muscle, sc, 10 mg/kg
[15] = male, SD, rat, plasma, sc, 10 mg/kg
[16] = male, SD, rat, small intestine, sc, 10 mg/kg
[17] = male, SD, rat, spleen, sc, 10 mg/kg
[18] = male, SD, rat, stomach, sc, 10 mg/kg
[19] = muscle, male SD rats, SC 10 mg/kg single
[20] = small intestine, male SD rats, SC 10 mg/kg single
[21] = spleen, male SD rats, SC 10 mg/kg single
[22] = stomach, male SD rats, SC 10 mg/kg single

With CC(C)[C@@H](NC(=O)[C@H](N)Cc1ccc(O)cc1)C(=O)N[C@H](CC(=O)O)C(=O)N[C@H](CCCCN)C(=O)N[C@H](CCCNC(=N)N)C(=O)O [FC-12738, (D-Tyr)-(D-Val)-(D-Asp)-(D-Lys)-(D-Arg)] (HELM PEPTIDE1{[dY].[dV].[dD].[dK].[dR]}$$$$V2.0) as the compound, how does the half-life (Plasma stability; human plasma, 2.00 μM, 37.0 °C, up to 120 min) read?
Its half-life is over 372.7 min.

And the remaining at 10 min, 2 μM (Plasma stability; human, plasma)?
Its remaining at 10 min, 2 μM is 93.3%.

And the remaining at 0.5 h, 2 μM (Plasma stability; human, plasma)?
The remaining at 0.5 h, 2 μM was 93.6%.

What about the remaining at 1 h, 2 μM (Plasma stability; human, plasma) of the same compound?
The remaining at 1 h, 2 μM was 90.6%.

And the remaining at 2 h, 2 μM (Plasma stability; human, plasma)?
The remaining at 2 h, 2 μM was 85.6%.

What about the IC50 (CYP1A2) of the same compound?
The IC50 was over 100 µM.

And the AUC0-last [1, 4]?
Its AUC0-last is 135000 ng·h/g.

What about the Cmax [1, 4] of the same compound?
Its Cmax is 28500 ng/g.

And the Tmax [1, 4]?
The Tmax was 30 min.

What about the AUC0-last [1, 5] of the same compound?
The AUC0-last was 4040 ng·h/g.

And the Cmax [1, 5]?
The Cmax was 2150 ng/g.

What about the Tmax [1, 5] of the same compound?
The Tmax was 30 min.

What about the AUC0-last [1, 6] of the same compound?
Its AUC0-last is 4190 ng·h/g.

And the Cmax [1, 6]?
The Cmax was 1270 ng/g.

And the Tmax [1, 6]?
Its Tmax is 30 min.

And the AUC0-last [1, 7]?
The AUC0-last was 6840 ng·h/g.

And the Cmax [1, 7]?
Its Cmax is 5330 ng/g.

And the Tmax [1, 7]?
The Tmax was 30 min.

And the “Tolerability / adverse effects in-life” value ([1]; male SD rats, SC 10 mg/kg single, tissue distribution study)?
The value was “No adverse effect was observed”.

And the tissue level at time at 0.5 h ([1]; male, SD, rat, brain, sc, 10 mg/kg)?
Its tissue level at time at 0.5 h is 128 ng/g.

And the tissue level at time at 0.5 h [1, 8]?
The tissue level at time at 0.5 h was 1070 ng/g.

What about the tissue level at time at 2 h [1, 8] of the same compound?
Its tissue level at time at 2 h is 103 ng/g.

And the tissue level at time at 0.5 h [1, 9]?
The tissue level at time at 0.5 h was 2150 ng/g.

And the tissue level at time at 2 h [1, 9]?
Its tissue level at time at 2 h is 365 ng/g.

And the tissue level at time at 0.5 h [1, 10]?
Its tissue level at time at 0.5 h is 28500 ng/g.

And the tissue level at time at 2 h [1, 10]?
Its tissue level at time at 2 h is 17300 ng/g.

What about the tissue level at time at 8 h [1, 10] of the same compound?
Its tissue level at time at 8 h is 14300 ng/g.

And the tissue level at time at 0.5 h [1, 11]?
The tissue level at time at 0.5 h was 2150 ng/g.

What about the tissue level at time at 2 h [1, 11] of the same compound?
The tissue level at time at 2 h was 430 ng/g.

And the tissue level at time at 8 h [1, 11]?
The tissue level at time at 8 h was 226 ng/g.

What about the tissue level at time at 0.5 h [1, 12] of the same compound?
The tissue level at time at 0.5 h was 1270 ng/g.

What about the tissue level at time at 2 h [1, 12] of the same compound?
The tissue level at time at 2 h was 616 ng/g.

What about the tissue level at time at 8 h [1, 12] of the same compound?
Its tissue level at time at 8 h is 269 ng/g.

And the tissue level at time at 0.5 h [1, 13]?
The tissue level at time at 0.5 h was 5330 ng/g.

What about the tissue level at time at 2 h [1, 13] of the same compound?
Its tissue level at time at 2 h is 752 ng/g.

And the tissue level at time at 8 h [1, 13]?
The tissue level at time at 8 h was 109 ng/g.

What about the tissue level at time at 0.5 h [1, 14] of the same compound?
Its tissue level at time at 0.5 h is 1490 ng/g.

And the tissue level at time at 2 h [1, 14]?
Its tissue level at time at 2 h is 191 ng/g.

And the tissue level at time at 8 h [1, 14]?
Its tissue level at time at 8 h is 46.4 ng/g.

What about the AUC(0-t) [1, 15] of the same compound?
Its AUC(0-t) is 14400 ng·h/mL.

And the Cmax [1, 15]?
The Cmax was 14200 ng/mL.

And the Tmax [1, 15]?
Its Tmax is 30 min.

And the level at 0.5 h [1, 15]?
Its level at 0.5 h is 14200 ng/mL.

And the level at 2 h [1, 15]?
Its level at 2 h is 1790 ng/mL.

And the level at 8 h [1, 15]?
The level at 8 h was 5.04 ng/mL.

And the tissue level at time at 0.5 h [1, 16]?
The tissue level at time at 0.5 h was 2060 ng/g.

What about the tissue level at time at 2 h [1, 16] of the same compound?
Its tissue level at time at 2 h is 775 ng/g.

And the tissue level at time at 8 h [1, 16]?
Its tissue level at time at 8 h is 188 ng/g.

What about the tissue level at time at 0.5 h [1, 17] of the same compound?
The tissue level at time at 0.5 h was 1490 ng/g.

What about the tissue level at time at 2 h [1, 17] of the same compound?
Its tissue level at time at 2 h is 345 ng/g.

And the tissue level at time at 8 h [1, 17]?
Its tissue level at time at 8 h is 239 ng/g.

And the tissue level at time at 0.5 h [1, 18]?
Its tissue level at time at 0.5 h is 3370 ng/g.

What about the tissue level at time at 2 h [1, 18] of the same compound?
Its tissue level at time at 2 h is 555 ng/g.

What about the tissue level at time at 8 h [1, 18] of the same compound?
Its tissue level at time at 8 h is 96.7 ng/g.

And the AUC0-last [1, 19]?
The AUC0-last was 1930 ng·h/g.

What about the Cmax [1, 19] of the same compound?
The Cmax was 1490 ng/g.

What about the Tmax [1, 19] of the same compound?
The Tmax was 30 min.

What about the AUC0-last [1, 20] of the same compound?
The AUC0-last was 4970 ng·h/g.

And the Cmax [1, 20]?
The Cmax was 2060 ng/g.

What about the Tmax [1, 20] of the same compound?
The Tmax was 30 min.

What about the AUC0-last [1, 21] of the same compound?
Its AUC0-last is 3280 ng·h/g.

And the Cmax [1, 21]?
Its Cmax is 1490 ng/g.

And the Tmax [1, 21]?
The Tmax was 30 min.

And the AUC0-last [1, 22]?
The AUC0-last was 4760 ng·h/g.

And the Cmax [1, 22]?
Its Cmax is 3370 ng/g.

What about the Tmax [1, 22] of the same compound?
Its Tmax is 30 min.

What about the “Cytotoxicity (released LDH)” value (human hepatocytes) of the same compound?
Its value is “no cytotoxicity”.

What about the IC50 (CYP2C8) of the same compound?
Its IC50 is over 100 µM.

What about the “intrinsic clearance CLint(hep)” value (CD-1 mouse hepatocytes; cryopreserved CD-1 mouse hepatocytes, 37.0°C, 120 min) of the same compound?
Its value is under 1.9 μL/min/10^6 cells.

What about the half-life (CD-1 mouse hepatocytes; cryopreserved CD-1 mouse hepatocytes, 37.0°C, 120 min, LC-MS/MS) of the same compound?
Its half-life is over 372.7 min.

What about the “hepatic clearance CLint(liver)” value (CD-1 mouse hepatocytes; scaled from CD-1 mouse hepatocytes) of the same compound?
Its value is under 22.1 mL/min/kg.

What about the Metabolites detected [2] of the same compound?
The Metabolites detected was “No metabolites of FC-12738 were detected”.

What about the “Relative Abundance (MS Peak Area %Total)” value ([2]; LC-UV-MS) of the same compound?
Its value is 100.00%.

And the IC50 (MATE1)?
Its IC50 is over 100 µM.

What about the fraction unbound at 6 h, 0.2 µM [3] of the same compound?
Its fraction unbound at 6 h, 0.2 µM is 0.449.

And the fraction unbound at 6 h, 2 µM [3]?
Its fraction unbound at 6 h, 2 µM is 0.455.

And the fraction unbound at 6 h, 10 µM [3]?
The fraction unbound at 6 h, 10 µM was 0.479.

And the IC50 (OAT1)?
The IC50 was over 100 µM.

Reference: paper doi:10.1101/2023.04.18.537371v1 (bioRxiv, 2023)
